# Assay results from paper PMC5303145 (Brain research, 2016).
# Positions count from the first letter of the chain named.
# Key:
# D97R α1 GlyR [1] = target: T1, D97R α1 GlyR (Homo sapiens, UniProt P23415, D125R); type: cell-based; conditions: for conductance of the openings: in the presence of taurine or glycine; for Popen of clusters: saturating concentration (100 mM taurine, 10 mM glycine), 2.5 mM tricine
# T1 sequence (P23415 29-449 isoform P23415-2 D125R limits assumed): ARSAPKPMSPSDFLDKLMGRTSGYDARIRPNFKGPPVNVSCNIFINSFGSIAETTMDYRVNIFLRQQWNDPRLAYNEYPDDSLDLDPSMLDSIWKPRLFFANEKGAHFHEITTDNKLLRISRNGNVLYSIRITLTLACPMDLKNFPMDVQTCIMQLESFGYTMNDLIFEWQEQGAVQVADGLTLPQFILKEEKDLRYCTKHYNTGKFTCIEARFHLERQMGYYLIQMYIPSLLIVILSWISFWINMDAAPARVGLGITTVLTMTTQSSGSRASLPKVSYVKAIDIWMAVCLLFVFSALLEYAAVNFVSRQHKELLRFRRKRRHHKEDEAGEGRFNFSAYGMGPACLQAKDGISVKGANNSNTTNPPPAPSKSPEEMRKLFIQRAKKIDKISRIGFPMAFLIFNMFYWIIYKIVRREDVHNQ
# D97E α1 GlyR = target: T2, D97E α1 GlyR (Homo sapiens, UniProt P23415, D125E); type: cell-based; conditions: for average current elicited: D97E α1 GlyR, 10 mM glycine or 100 mM taurine
# T2 sequence (P23415 29-449 isoform P23415-2 D125E limits assumed): T1 sequence (P23415 29-449 isoform P23415-2 D125R limits assumed) with R97E
# D97R α1 GlyR [2] = target: T1, D97R α1 GlyR; type: cell-based; conditions: for average current elicited: 10 mM glycine or 100 mM taurine; for increase of maximal currents by the D97R mutation: D97R versus WT; for Imax (% of max glycine): D97R, percentage of maximal glycine current ± S.E.M.
# D97A α1 GlyR = conditions: for Popen of clusters: D97A, saturating concentration (100 mM taurine, 10 mM glycine), 2.5 mM tricine
# [3] = target: T3, human α1 glycine receptor WT (Homo sapiens, UniProt P23415); type: cell-based; conditions: for average current elicited: WT GlyR, 10 mM glycine or 100 mM taurine; for Imax (% of max glycine): α1 WT, percentage of maximal glycine current ± S.E.M.
# T3 sequence (P23415 29-449 isoform P23415-2 limits assumed): T1 sequence (P23415 29-449 isoform P23415-2 D125R limits assumed) with R97D
# D97 mutant GlyR = conditions: saturating concentrations of glycine or taurine
# wildtype α1 GlyR = type: cell-based, human
Imax (% of max glycine) [3],increase of maximal currents by the D97R mutation (D97R α1 GlyR [2]),Imax (% of max glycine) (D97R α1 GlyR [2]),Compound,conductance of the openings (D97R α1 GlyR [1]),Popen of clusters (D97R α1 GlyR [1]),average current elicited (D97E α1 GlyR),average current elicited (D97R α1 GlyR [2]; D97R α1 GlyR),"total current in patch (D97A α1 GlyR; D97A multi-channel patch, sample tracing, 10 mM glycine)",Popen of clusters (D97A α1 GlyR),average current elicited [3],whole-cell current (D97 mutant GlyR),Popen (wildtype α1 GlyR),"Imax (% of max glycine) (D97E α1 GlyR; D97E, percentage of maximal glycine current ± S.E.M.)","maximal taurine response versus maximal glycine response (D97R α1 GlyR [2]; D97R GlyR, 100 mM taurine vs 10 mM glycine)","greater current than glycine (D97R α1 GlyR [2]; D97R α1 GlyR, taurine and glycine both at 300 mM)","EC50 ([3]; EC50, α1 WT, whole-cell, oocytes, 2.5 mM tricine)"
–,–,–,NCC(=O)O [Glycine],approximately 75 pS,0.990 ± 0.001,11.9 ± 2.9 μA,3.68 ± 0.37 μA,84 pA,0.938 ± 0.044,27.6 ± 2.9 μA,3000–5000 nA,–,–,–,–,–
15.3 ± 3.3%,four- to five-fold,61%,"CC(CN)C(=O)O (stereo not drawn) [β-AIBA, β-aminoisobutyric acid]",–,–,–,–,–,–,–,–,–,–,–,–,–
17.3 ± 9.2%,four- to five-fold,89%,"CC(N)CC(=O)O (stereo not drawn) [β-ABA, β-aminobutyric acid]",–,–,–,–,–,–,–,–,–,–,–,–,–

Compound,Imax (% of max glycine) [3],increase of maximal currents by the D97R mutation (D97R α1 GlyR [2]),Imax (% of max glycine) (D97R α1 GlyR [2]),conductance of the openings (D97R α1 GlyR [1]),Popen of clusters (D97R α1 GlyR [1]),average current elicited (D97E α1 GlyR),average current elicited (D97R α1 GlyR [2]; D97R α1 GlyR),"total current in patch (D97A α1 GlyR; D97A multi-channel patch, sample tracing, 10 mM glycine)",Popen of clusters (D97A α1 GlyR),average current elicited [3],whole-cell current (D97 mutant GlyR),Popen (wildtype α1 GlyR),"Imax (% of max glycine) (D97E α1 GlyR; D97E, percentage of maximal glycine current ± S.E.M.)","maximal taurine response versus maximal glycine response (D97R α1 GlyR [2]; D97R GlyR, 100 mM taurine vs 10 mM glycine)","greater current than glycine (D97R α1 GlyR [2]; D97R α1 GlyR, taurine and glycine both at 300 mM)","EC50 ([3]; EC50, α1 WT, whole-cell, oocytes, 2.5 mM tricine)"
NCCS(=O)(=O)O [Taurine],41 ± 4.5%,–,–,approximately 75 pS,0.990 ± 0.002,11.4 ± 2.9 μA,3.56 ± 0.36 μA,–,0.987 ± 0.003,11.8 ± 1.7 μA,3000–5000 nA,0.62 ± 0.06,95.6 ± 4.7%,approximately equal,12.7 ± 7.1%,1960 µM
